In US9249180B2, “C-3 alkyl and alkenyl modified betulinic acid derivatives” (priority 2013, dated 2016):
pEC50: −log10 of the molar value.

The molecules below were run on recombinant NL4-3 virus (Renilla luciferase in nef, Gag P373S; NLRluc) in MT-2 cells (assay: HIV Cell Culture Assay (luciferase reporter, antiviral activity)). Details: MT-2 cells infected for 4-5 days with NLRluc recombinants, serial dilutions of the inhibitor.
Assay type: cell-based
Procedure: HIV Cell Culture Assay—MT-2 cells and 293T cells were obtained from the NIH AIDS Research and Reference Reagent Program. MT-2 cells were propagated in RPMI 1640 media supplemented with 10% heat inactivated fetal bovine serum, […]. The 293T cells were propagated in DMEM media supplemented with 10% heat inactivated fetal bovine serum (FBS), 100 units/ml penicillin G and 100 μg/ml streptomycin. The proviral DNA clone of NL4-3 was obtained from the NIH AIDS Research and Reference Reagent Program. A recombinant NL4-3 virus, in which a section of the nef gene from NL4-3 was replaced with the Renilla luciferase gene, was used as a reference virus. In addition, residue Gag P373 was converted to P373S. Briefly, the recombinant virus was prepared by transfection of the altered proviral clone of NL4-3. Transfections were performed in 293T cells using LipofectAMINE PLUS from Invitrogen (Carlsbad, Calif.), according to manufacturer's instruction. The virus was titered in MT-2 cells using luciferase enzyme activity as a marker. Luciferase was quantitated using the Dual Luciferase kit from Promega (Madison, Wis.), with modifications to the manufacturer's protocol. The diluted Passive Lysis solution was pre-mixed with the re-suspended Luciferase Assay Reagent and the re-suspended Stop & Glo Substrate (2:1:1 ratio). Fifty (50) μL of the mixture was added to each aspirated well on assay plates and luciferase activity was measured immediately on a Wallac TriLux (Perkin-Elmer). Antiviral activities of inhibitors toward the recombinant virus were quantified by measuring luciferase activity in cells infected for 4-5 days with NLRluc recombinants in the presence serial dilutions of the inhibitor.
Molecule `C=C(C)[C@@H]1CC[C@]2(NCCN3CCS(=O)(=O)CC3)CC[C@]3(C)[C@H](CC[C@@H]4[C@@]5(C)CC=C(CC6CCCC(C(=O)O)C6)C(C)(C)[C@@H]5CC[C@]43C)[C@@H]12` (single isomer, unassigned) [Example 3] has a pEC50 of 8.76.

Same assay, conditions: Renilla, NL43, MT-2 cells infected for 4-5 days with NLRluc recombinants, serial dilutions of the inhibitor
`C=C(C)[C@@H]1CC[C@]2(NCCN3CCC(S(C)(=O)=O)CC3)CC[C@]3(C)[C@H](CC[C@@H]4[C@@]5(C)CC=C(CCC(C)(C)CC(=O)O)C(C)(C)[C@@H]5CC[C@]43C)[C@@H]12` [Example 18, 3,3-dimethyl-5-((1R,3aS,5aR,5bR,7aR,11aS,11bR,13aR,13bR)-5a,5b,8,8,11a-pentamethyl-3a-((2-(4-(methylsulfonyl)piperidin-1-yl)ethyl)amino)-1-(prop-1-en-2-yl)-2,3,3a,4,5,5a,5b,6,7,7a,8,11,11a,11b,12,13,13a,13b-octadecahydro-1H-cyclopenta[a]chrysen-9-yl)pentanoic acid] showed a pEC50 of 8.96. `C=C(C)[C@@H]1CC[C@]2(NCCN3CCS(=O)(=O)CC3)CC[C@]3(C)[C@H](CC[C@@H]4[C@@]5(C)CC=C(/C=C/C6CC6(NC(=O)OC(C)(C)C)C(=O)O)C(C)(C)[C@@H]5CC[C@]43C)[C@@H]12` (stereo partly drawn) [Example B2, 1-((tert-butoxycarbonyl)amino)-2-((E)-2-((1R,3aS,5aR,5bR,7aR,11aS,11bR,13aR,13bR)-3a-((2-(1,1-dioxidothiomorpholino)ethyl)amino)-5a,5b,8,8,11a-pentamethyl-1-(prop-1-en-2-yl)-2,3,3a,4,5,5a,5b,6,7,7a,8,11,11a,11b,12,13,13a,13b-octadecahydro-1H-cyclopenta[a]chrysen-9-yl)vinyl)cyclopropanecarboxylic acid] showed a pEC50 of 7.40. For `C=C(C)[C@@H]1CC[C@]2(NCCN3CCS(=O)(=O)CC3)CC[C@]3(C)[C@H](CC[C@@H]4[C@@]5(C)CC=C(CC6CCCC(C(=O)O)C6)C(C)(C)[C@@H]5CC[C@]43C)[C@@H]12` (single isomer, unassigned) [Example 2], the pEC50 was 8.70. Work on `C=C(C)[C@@H]1CC[C@]2(NCCN3CCS(=O)(=O)CC3)CC[C@]3(C)[C@H](CC[C@@H]4[C@@]5(C)CC=C(CCCC(C)(C)C(=O)O)C(C)(C)[C@@H]5CC[C@]43C)[C@@H]12` [Example 7, 5-((1R,3aS,5aR,5bR,7aR,11aS,11bR,13aR,13bR)-3a-((2-(1,1-dioxidothiomorpholino)ethyl)amino)-5a,5b,8,8,11a-pentamethyl-1-(prop-1-en-2-yl)-2,3,3a,4,5,5a,5b,6,7,7a,8,11,11a,11b,12,13,13a,13b-octadecahydro-1H-cyclopenta[a]chrysen-9-yl)-2,2-dimethylpentanoic acid] yielded a pEC50 of 8.28. Molecule `C=C(C)[C@@H]1CC[C@]2(NCCN3CCS(=O)(=O)CC3)CC[C@]3(C)[C@H](CC[C@@H]4[C@@]5(C)CC=C(CCCC(C(=O)O)C(=O)O)C(C)(C)[C@@H]5CC[C@]43C)[C@@H]12` [Example 5, 2-(3-((1R,3aS,5aR,5bR,7aR,11aS,11bR,13aR,13bR)-3a-((2-(1,1-dioxidothiomorpholino)ethyl)amino)-5a,5b,8,8,11a-pentamethyl-1-(prop-1-en-2-yl)-2,3,3a,4,5,5a,5b,6,7,7a,8,11,11a,11b,12,13,13a,13b-octadecahydro-1H-cyclopenta[a]chrysen-9-yl)propyl)malonic acid] has a pEC50 of 6.51. With `C=C(C)[C@@H]1CC[C@]2(NCCN3CCC(S(C)(=O)=O)CC3)CC[C@]3(C)[C@H](CC[C@@H]4[C@@]5(C)CC=C(C=C6CCC(F)(C(=O)O)CC6)C(C)(C)[C@@H]5CC[C@]43C)[C@@H]12` (mixture of isomers) [Example B3, 1-fluoro-4-(((1R,3aS,5aR,5bR,7aR,11aS,11bR,13aR,13bR)-5a,5b,8,8,11a-pentamethyl-3a-((2-(4-(methylsulfonyl)piperidin-1-yl)ethyl)amino)-1-(prop-1-en-2-yl)-2,3,3a,4,5,5a,5b,6,7,7a,8,11,11a,11b,12,13,13a,13b-octadecahydro-1H-cyclopenta[a]chrysen-9-yl)methylene)cyclohexanecarboxylic acid] the pEC50 was 8.35. `C=C(C)[C@@H]1CC[C@]2(NCCN3CCS(=O)(=O)CC3)CC[C@]3(C)[C@H](CC[C@@H]4[C@@]5(C)CC=C(CC6CCC(OCC)(C(=O)O)CC6)C(C)(C)[C@@H]5CC[C@]43C)[C@@H]12` (stereo partly drawn) [Example 8, 4-(((1R,3aS,5aR,5bR,7aR,11aS,11bR,13aR,13bR)-3a-((2-(1,1-dioxidothiomorpholino)ethyl)amino)-5a,5b,8,8,11a-pentamethyl-1-(prop-1-en-2-yl)-2,3,3a,4,5,5a,5b,6,7,7a,8,11,11a,11b,12,13,13a,13b-octadecahydro-1H-cyclopenta[a]chrysen-9-yl)methyl)-1-ethoxycyclohexanecarboxylic acid] gave a pEC50 of 8.38. `C=C(C)[C@@H]1CC[C@]2(NCCN3CCS(=O)(=O)CC3)CC[C@]3(C)[C@H](CC[C@@H]4[C@@]5(C)CC=C(CC6CCC(C(=O)O)CC6)C(C)(C)[C@@H]5CC[C@]43C)[C@@H]12` (stereo partly drawn) [Example 1, 4-(((1R,3aS,5aR,5bR,7aR,11aS,11bR,13aR,13bR)-3a-((2-(1,1-dioxidothiomorpholino)ethyl)amino)-5a,5b,8,8,11a-pentamethyl-1-(prop-1-en-2-yl)-2,3,3a,4,5,5a,5b,6,7,7a,8,11,11a,11b,12,13,13a,13b-octadecahydro-1H-cyclopenta[a]chrysen-9-yl)methyl)cyclohexanecarboxylic acid] showed a pEC50 of 8.53. Molecule `C=C(C)[C@@H]1CC[C@]2(NCCN3CCS(=O)(=O)CC3)CC[C@]3(C)[C@H](CC[C@@H]4[C@@]5(C)CC=C(C=C6CCC(C(=O)O)CC6)C(C)(C)[C@@H]5CC[C@]43C)[C@@H]12` (stereo partly drawn) [Example A1, 4-(((1R,3aS,5aR,5bR,7aR,11aS,11bR,13aR,13bR)-3a-((2-(1,1-dioxidothiomorpholino)ethyl)amino)-5a,5b,8,8,11a-pentamethyl-1-(prop-1-en-2-yl)-2,3,3a,4,5,5a,5b,6,7,7a,8,11,11a,11b,12,13,13a,13b-octadecahydro-1H-cyclopenta[a]chrysen-9-yl)methylene)cyclohexanecarboxylic acid] has a pEC50 of 8.45. `C=C(C)[C@@H]1CC[C@]2(NCCN3CCS(=O)(=O)CC3)CC[C@]3(C)[C@H](CC[C@@H]4[C@@]5(C)CC=C(CC6CCC(OC)(C(=O)O)CC6)C(C)(C)[C@@H]5CC[C@]43C)[C@@H]12` (stereo partly drawn) [Example 9, 4-(((1R,3aS,5aR,5bR,7aR,11aS,11bR,13aR,13bR)-3a-((2-(1,1-dioxidothiomorpholino)ethyl)amino)-5a,5b,8,8,11a-pentamethyl-1-(prop-1-en-2-yl)-2,3,3a,4,5,5a,5b,6,7,7a,8,11,11a,11b,12,13,13a,13b-octadecahydro-1H-cyclopenta[a]chrysen-9-yl)methyl)-1-methoxycyclohexanecarboxylic acid] gave a pEC50 of 8.43. With `C=C(C)[C@@H]1CC[C@]2(NCCN3CCS(=O)(=O)CC3)CC[C@]3(C)[C@H](CC[C@@H]4[C@@]5(C)CC=C(CCC(C)(C)CC(=O)O)C(C)(C)[C@@H]5CC[C@]43C)[C@@H]12` [Example 6, 5-((1R,3aS,5aR,5bR,7aR,11aS,11bR,13aR,13bR)-3a-((2-(1,1-dioxidothiomorpholino)ethyl)amino)-5a,5b,8,8,11a-pentamethyl-1-(prop-1-en-2-yl)-2,3,3a,4,5,5a,5b,6,7,7a,8,11,11a,11b,12,13,13a,13b-octadecahydro-1H-cyclopenta[a]chrysen-9-yl)-3,3-dimethylpentanoic acid] the pEC50 was 8.86. `C=C(C)[C@@H]1CC[C@]2(NCCN3CCS(=O)(=O)CC3)CC[C@]3(C)[C@H](CC[C@@H]4[C@@]5(C)CC=C(CCC(C)(C)CC(=O)NS(C)(=O)=O)C(C)(C)[C@@H]5CC[C@]43C)[C@@H]12` [Example 15, 5-((1R,3aS,5aR,5bR,7aR,11aS,11bR,13aR,13bR)-3a-((2-(1,1-dioxidothiomorpholino)ethyl)amino)-5a,5b,8,8,11a-pentamethyl-1-(prop-1-en-2-yl)-2,3,3a,4,5,5a,5b,6,7,7a,8,11,11a,11b,12,13,13a,13b-octadecahydro-1H-cyclopenta[a]chrysen-9-yl)-3,3-dimethyl-N-(methylsulfonyl)pentanamide] gave a pEC50 of 8.80. With `C=C(C)[C@@H]1CC[C@]2(NCCN3CCS(=O)(=O)CC3)CC[C@]3(C)[C@H](CC[C@@H]4[C@@]5(C)CC=C(CCC(C)(C)CC(=O)NC#N)C(C)(C)[C@@H]5CC[C@]43C)[C@@H]12` [Example 14, N-cyano-5-((1R,3aS,5aR,5bR,7aR,11aS,11bR,13aR,13bR)-3a-((2-(1,1-dioxidothiomorpholino)ethyl)amino)-5a,5b,8,8,11a-pentamethyl-1-(prop-1-en-2-yl)-2,3,3a,4,5,5a,5b,6,7,7a,8,11,11a,11b,12,13,13a,13b-octadecahydro-1H-cyclopenta[a]chrysen-9-yl)-3,3-dimethylpentanamide] the pEC50 was 8.33.
